Measurements published in patent US8017612B2, “Piperazine compound and use thereof as a HCV polymerase inhibitor” (priority 2006, dated 2011).
Structures can show the parent of a compound that is named as a salt.

How the values were obtained:
[1] = biological target: T1, HCV polymerase (NS5B) type 1b (Hepatitis C virus genotype 1b, UniProt P26663); assay: Assay of enzyme (HCV polymerase) inhibitory activity, type 1b enzyme; assay type: biochemical, HCV BK strain (type 1b); conditions: HCV polymerase inhibitory activity (IC50), 1b, type 1b enzyme 0.5 μg/ml, 25° C., 60 min
T1 construct: a region encoding NS5B (J Virol 1991 March, 65(3), 1105-13, 544 amino acids after deletion of 47 amino acids on the C-terminal); 6xHis (C); made in house; host or cells: Escherichia coli
Outline: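 Rxn: NS5B 1b (BK, ΔC47, His6) 0.5 μg/ml; substrate RNA 5 μg/ml; ATP/GTP/CTP 50 μM, UTP 2 μM + [5,6-3H]UTP; 20 mM Tris pH 7.5, 5 mM MgCl2, 50 mM NaCl, 1 mM EDTA/DTT. 25 °C, 60 min. Stop with TCA/pyrophosphate, filter, scintillation count; IC50 vs. untreated.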

[2] = biological target: T2, HCV polymerase (NS5B) type 1a (Hepatitis C virus genotype 1a, UniProt P26664); assay: Assay of enzyme (HCV polymerase) inhibitory activity, type 1a enzyme; assay type: biochemical, HCV type 1a (cloned from the blood of patients); conditions: HCV polymerase inhibitory activity (IC50), 1a, type 1a enzyme 1.5 μg/ml, 25° C., 60 min
T2 construct: made in house; host or cells: Escherichia coli (by the 'similar method' of the 1b enzyme)
Outline: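 NS5B Δ47 C-term His6 (type 1a, 1.5 μg/ml); substrate RNA 5 μg/ml; ATP/GTP/CTP 50 μM, UTP 2 μM + [5,6-3H]UTP; Tris pH 7.5, MgCl2 5 mM; 25° C, 60 min. TCA/pyrophosphate stop, GF/B filter, scintillation. IC50 vs no-compound control.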

CN(C)c1ccc(CNC(=O)[C@H]2CN(C(=O)CN)CCN2S(=O)(=O)c2ccc(C(F)(F)F)cc2)cc1 [Example 262, (R)-4-(2-amino-acetyl)-1-(4-trifluoromethyl-benzenesulfonyl)-piperazine-2-carboxylic acid 4-dimethylamino-benzylamide dihydrochloride]
IC50 [1]: > 1 µM | IC50 [2]: > 1 µM

CC(=O)N1CCN(S(=O)(=O)c2cccc(C(F)(F)F)c2)[C@@H](C(=O)NCc2ccc(C(C)C)cc2)C1 [Example 263, (R)-4-acetyl-1-(3-trifluoromethyl-benzenesulfonyl)-piperazine-2-carboxylic acid 4-isopropyl-benzylamide]
IC50 [1]: 0.1 to 1 µM | IC50 [2]: 0.1 to 1 µM

CC(=O)N1CCN(S(=O)(=O)c2ccc3c(c2)CCCCC3)[C@@H](C(=O)NCc2ccc(C(C)C)cc2)C1 [Example 264, (R)-4-acetyl-1-(6,7,8,9-tetrahydro-5H-benzocycloheptene-2-sulfonyl)-piperazine-2-carboxylic acid 4-isopropyl-benzylamide]
IC50 [1]: < 0.1 µM | IC50 [2]: < 0.1 µM

CC(C)c1ccc(CNC(=O)[C@H]2CN(C(=O)NS(=O)(=O)c3ccccc3)CCN2S(=O)(=O)c2ccc(C(F)(F)F)cc2)cc1 [Example 265, (R)-4-benzenesulfonylaminocarbonyl-1-(4-trifluoromethyl-benzenesulfonyl)-piperazine-2-carboxylic acid 4-isopropyl-benzylamide]
IC50 [1]: > 1 µM | IC50 [2]: > 1 µM

COc1ccc(CC(=O)N2CCN(S(=O)(=O)c3ccc(C(F)(F)F)cc3)[C@@H](C(=O)NCc3ccc(C(C)C)cc3)C2)cc1 [Example 266, (R)-4-[2-(4-methoxy-phenyl)-acetyl]-1-(4-trifluoromethyl-benzenesulfonyl)-piperazine-2-carboxylic acid 4-isopropyl-benzylamide]
IC50 [1]: 0.1 to 1 µM | IC50 [2]: 0.1 to 1 µM

COc1ccccc1CC(=O)N1CCN(S(=O)(=O)c2ccc(C(F)(F)F)cc2)[C@@H](C(=O)NCc2ccc(C(C)C)cc2)C1 [Example 267, (R)-4-[2-(2-methoxy-phenyl)-acetyl]-1-(4-trifluoromethyl-benzenesulfonyl)-piperazine-2-carboxylic acid 4-isopropyl-benzylamide]
IC50 [1]: 0.1 to 1 µM | IC50 [2]: > 1 µM

COc1cccc(CC(=O)N2CCN(S(=O)(=O)c3ccc(C(F)(F)F)cc3)[C@@H](C(=O)NCc3ccc(C(C)C)cc3)C2)c1 [Example 268, (R)-4-[2-(3-methoxy-phenyl)-acetyl]-1-(4-trifluoromethyl-benzenesulfonyl)-piperazine-2-carboxylic acid 4-isopropyl-benzylamide]
IC50 [1]: 0.1 to 1 µM | IC50 [2]: > 1 µM

CC(C)c1ccc(CNC(=O)[C@H]2CN(C(=O)Nc3ccccc3Cl)CCN2S(=O)(=O)c2ccc(C(F)(F)F)cc2)cc1 [Example 269, (R)-4-(4-trifluoromethyl-benzenesulfonyl)-piperazine-1,3-dicarboxylic acid 1-[(2-chloro-phenyl)-amide] 3-(4-isopropyl-benzylamide)]
IC50 [1]: > 1 µM | IC50 [2]: > 1 µM

CC(C)c1ccc(CNC(=O)[C@H]2CN(C(=O)Nc3cccc(Cl)c3)CCN2S(=O)(=O)c2ccc(C(F)(F)F)cc2)cc1 [Example 270, (R)-4-(4-trifluoromethyl-benzenesulfonyl)-piperazine-1,3-dicarboxylic acid 1-[(3-chloro-phenyl)-amide] 3-(4-isopropyl-benzylamide)]
IC50 [1]: 0.1 to 1 µM | IC50 [2]: > 1 µM

CC(C)c1ccc(CNC(=O)[C@H]2CN(C(=O)Nc3ccc(Cl)cc3)CCN2S(=O)(=O)c2ccc(C(F)(F)F)cc2)cc1 [Example 271, (R)-4-(4-trifluoromethyl-benzenesulfonyl)-piperazine-1,3-dicarboxylic acid 1-[(4-chloro-phenyl)-amide] 3-(4-isopropyl-benzylamide)]
IC50 [1]: > 1 µM | IC50 [2]: > 1 µM

COc1ccccc1NC(=O)N1CCN(S(=O)(=O)c2ccc(C(F)(F)F)cc2)[C@@H](C(=O)NCc2ccc(C(C)C)cc2)C1 [Example 272, (R)-4-(4-trifluoromethyl-benzenesulfonyl)-piperazine-1,3-dicarboxylic acid 3-(4-isopropyl-benzylamide) 1-[(2-methoxy-phenyl)-amide]]
IC50 [1]: 0.1 to 1 µM | IC50 [2]: > 1 µM

COc1cccc(NC(=O)N2CCN(S(=O)(=O)c3ccc(C(F)(F)F)cc3)[C@@H](C(=O)NCc3ccc(C(C)C)cc3)C2)c1 [Example 273, (R)-4-(4-trifluoromethyl-benzenesulfonyl)-piperazine-1,3-dicarboxylic acid 3-(4-isopropyl-benzylamide) 1-[(3-methoxy-phenyl)-amide]]
IC50 [1]: 0.1 to 1 µM | IC50 [2]: > 1 µM

CC(C)c1ccc(CNC(=O)[C@H]2CN(C(=O)CNC(=O)CCC(=O)O)CCN2S(=O)(=O)c2ccc(C(F)(F)F)cc2)cc1 [Example 274, N-{2-[(R)-3-(4-isopropyl-benzylcarbamoyl)-4-(4-trifluoromethyl-benzenesulfonyl)-piperazin-1-yl]-2-oxo-ethyl}-succinamic acid]
IC50 [1]: 0.1 to 1 µM | IC50 [2]: > 1 µM

COC(=O)c1cccc(NC(=O)N2CCN(S(=O)(=O)c3ccc(C(F)(F)F)cc3)[C@@H](C(=O)NCc3ccc(C(C)C)cc3)C2)c1 [Example 275, 3-{[(R)-3-(4-isopropyl-benzylcarbamoyl)-4-(4-trifluoromethyl-benzenesulfonyl)-piperazine-1-carbonyl]-amino}-benzoic acid methyl ester]
IC50 [1]: 0.1 to 1 µM | IC50 [2]: 0.1 to 1 µM

COC(=O)c1ccc(NC(=O)N2CCN(S(=O)(=O)c3ccc(C(F)(F)F)cc3)[C@@H](C(=O)NCc3ccc(C(C)C)cc3)C2)cc1 [Example 276, 4-{[(R)-3-(4-isopropyl-benzylcarbamoyl)-4-(4-trifluoromethyl-benzenesulfonyl)-piperazine-1-carbonyl]-amino}-benzoic acid methyl ester]
IC50 [1]: 0.1 to 1 µM | IC50 [2]: 0.1 to 1 µM

COc1ccc(NC(=O)N2CCN(S(=O)(=O)c3ccc(C(F)(F)F)cc3)[C@@H](C(=O)NCc3ccc(C(C)C)cc3)C2)cc1 [Example 277, (R)-4-(4-trifluoromethyl-benzenesulfonyl)-piperazine-1,3-dicarboxylic acid 3-(4-isopropyl-benzylamide) 1-[(4-methoxy-phenyl)-amide]]
IC50 [1]: 0.1 to 1 µM | IC50 [2]: > 1 µM

CC(C)c1ccc(CNC(=O)[C@H]2CN(C(=O)Cn3ncnn3)CCN2S(=O)(=O)c2ccc(C(F)(F)F)cc2)cc1 [Example 278, (R)-4-(2-tetrazol-2-yl-acetyl)-1-(4-trifluoromethyl-benzenesulfonyl)-piperazine-2-carboxylic acid 4-isopropyl-benzylamide]
IC50 [1]: < 0.1 µM | IC50 [2]: < 0.1 µM

COCC(=O)N1CCN(S(=O)(=O)c2ccc(C(F)(F)F)cc2)[C@@H](C(=O)NCc2ccc(C(C)C)cc2)C1 [Example 279, (R)-4-(2-methoxy-acetyl)-1-(4-trifluoromethyl-benzenesulfonyl)-piperazine-2-carboxylic acid 4-isopropyl-benzylamide]
IC50 [1]: 0.1 to 1 µM | IC50 [2]: 0.1 to 1 µM

CC(=O)N1CCN(S(=O)(=O)c2ccc(C(C)C)cc2)[C@@H](C(=O)NCc2ccc(C3CC3)cc2)C1 [Example 280, 4-acetyl-1-(4-isopropyl-benzenesulfonyl)-piperazine-2-carboxylic acid 4-cyclopropyl-benzylamide]
IC50 [1]: 0.1 to 1 µM | IC50 [2]: 0.1 to 1 µM

CCCc1ccc(S(=O)(=O)N2CCN(C(=O)Nc3cccc(OCC(=O)OCC)c3)C[C@@H]2C(=O)NCc2ccc(C(C)C)cc2)cc1 [Example 281, (3-{[(R)-3-(4-isopropyl-benzylcarbamoyl)-4-(4-propyl-benzenesulfonyl)-piperazine-1-carbonyl]-amino}-phenoxy)-acetic acid ethyl ester]
IC50 [1]: < 0.1 µM | IC50 [2]: 0.1 to 1 µM

CCCc1ccc(S(=O)(=O)N2CCN(C(=O)Nc3cccc(OCC(=O)O)c3)C[C@@H]2C(=O)NCc2ccc(C(C)C)cc2)cc1 [Example 282, (3-{[(R)-3-(4-isopropyl-benzylcarbamoyl)-4-(4-propyl-benzenesulfonyl)-piperazine-1-carbonyl]-amino}-phenoxy)-acetic acid]
IC50 [1]: < 0.1 µM | IC50 [2]: 0.1 to 1 µM

CC(=O)N1CCN(S(=O)(=O)c2ccc(CCC(=O)O)s2)[C@@H](C(=O)NCc2ccc(C(C)C)cc2)C1 [Example 283, 3-{5-[(R)-4-acetyl-2-(4-isopropyl-benzylcarbamoyl)-piperazine-1-sulfonyl]-thiophen-2-yl}-propionic acid]
IC50 [1]: > 1 µM | IC50 [2]: > 1 µM

CC(=O)N1CCN(S(=O)(=O)c2ccc(OCC(F)(F)F)cc2)[C@@H](C(=O)NCc2ccc(C(C)C)cc2)C1 [Example 284, (R)-4-acetyl-1-[4-(2,2,2-trifluoro-ethoxy)-benzenesulfonyl]-piperazine-2-carboxylic acid 4-isopropyl-benzylamide]
IC50 [1]: < 0.1 µM | IC50 [2]: 0.1 to 1 µM

CC(C)c1ccc(CNC(=O)[C@H]2CN(C(=O)Nc3ccc(C(=O)O)cc3)CCN2S(=O)(=O)c2ccc(C(F)(F)F)cc2)cc1 [Example 285, 4-{[(R)-3-(4-isopropyl-benzylcarbamoyl)-4-(4-trifluoromethyl-benzenesulfonyl)-piperazine-1-carbonyl]-amino}-benzoic acid]
IC50 [1]: < 0.1 µM | IC50 [2]: 0.1 to 1 µM
